This is an account of results in PMC10967270, “Intrapulmonary and Systemic Pharmacokinetics of Colistin Following Nebulization of Low-Dose Colistimethate Sodium in Patients with Ventilator-Associated Pneumonia Caused by Carbapenem-Resistant Acinetobacter baumannii” (Antibiotics, 2024).

Read-outs that look alike come from different tables or passages of the source. Positions of bridges follow the written chain, without caps; N, C: chain ends. Non-standard residues stand in square brackets, D forms with d. Residues, ends and D or L forms follow the SMILES beside them. *: point of attachment. X1 = CC[C@H](C)CCCCC(=O)*; Dab = NCC[C@H](N)C(=O)O

Series [1] can be described thus: Population PK model of colistin in plasma (NONMEM, one-compartment, Weibull absorption). It is filed as in vivo, human. The text has this: The time courses of colistin concentrations in ELF and plasma were best described using one-compartment models with a Weibull absorption process. The following structural PK model described by two differential equations was applied:(1) dA1/dt=−WB×A1 (2) WB=KAMAX×1−e^−RA×time^GAM (3) dA2/dt=WB×A1−CL/V×A2 where A1 and A2 represent the amounts of colistin in ELF and plasma, and WB denotes the Weibull absorption function with parameters KAMMA, RA, and GAM. KAMMA determines the function’s maximum value, often representing the maximum rate of absorption or event occurrence. RA, the shape parameter, controls the rate of change over time, influencing the distribution’s slope and how quickly it increases or decreases. GAM adjusts the time variable’s exponent, controlling the rate of growth or decline over time, thereby affecting the distribution’s asymmetry and indicating the curve’s speed in reaching its peak or declining. CL and V are the total clearance and volume of distribution for colistin, respectively. The estimated CL and V in Table 2 were expressed as CL/fm and V/fm, respectively, where fm represents the fraction of CMS metabolized to colistin, a value that cannot be estimated from our study data. No significant covariates influencing the PK parameters were identified. The estimated PK parameters for the final PK models are presented in Table 2, while individual fit plots for colistin in ELF and plasma can be found in Figure 2 and Figure 3, respectively. Diagnostic goodness-of-fit plots for the final PK model of colistin in ELF and plasma are shown in Supplementary Materials Figures S1 and S2, respectively. […] With the observed 10th, 50th, and 90th percentiles mostly within the 95% confidence intervals of the simulated percentiles, the final PK models effectively explained the observed concentrations and had good predictive performance.
A population PK analysis of colistin in ELF and plasma was conducted using NONMEM 7.5.0 (ICON Clinical Research LLC, North Wales, PA, USA). The analysis used first-order conditional estimation with interaction (FOCEI) to estimate both observed fixed and unexplained random effect parameters. The FOCEI allows the inter-individual variability (IIV) in the PK parameters to interact with the residual unexplained variability (RUV) in the observed concentrations. The RUV arises from factors such as within-subject variability, assay error, and potential misspecification of the model. ADVAN1 TRANS2 and ADVAN3 TRANS4 from the NONMEM PK model library were used to construct the single- and two-compartment models, respectively. Except for drug inhalation, all PK processes were assumed to follow first-order kinetics. Various absorption models, including zero-order, first-order, Weibull, and transit absorption models, were investigated to describe the absorption processes of colistin.
The representation of each PK parameter was given by θi = θ × exp(ηi), where θ stands for the typical value of the PK parameter, θi represents an individual PK parameter, and ηi is a random variable associated with IIV. It was assumed that IIV follows a normal distribution with a mean of 0 and a variance of ω^2. For RUV, which was assumed to be normally distributed with a mean of 0 and a variance of σ^2; additive, proportional, and combined additive and proportional error models were investigated.
Models were assessed and chosen based on NONMEM objective function values (OFVs), the precision of parameter estimates (relative standard errors), the shrinkage of IIV, and diagnostic goodness-of-fit plots. In the log-likelihood ratio test, if the decrease in OFV (ΔOFV) is greater than 3.84 for models with one additional degree of freedom or greater than 5.99 for models with two additional degrees of freedom, it is considered statistically significant at p < 0.05, indicating an improvement in the model. […]

For series [2] the following is noted: cited from earlier work; for Maximum ELF concentration, median (IQR): 2 MIU CMS. Here is the method:
The observed median (IQR) peak colistin concentration was 21,950 (10,440–28,389) μg/L in the ELF, while that in plasma was 43.51 (14.23–85.78) μg/L. Boisson et al. reported that, regardless of concentration, a significant adsorption of CMS to the mini-BAL device was not observed in studies utilizing the mini-BAL device. They also noted that non-specific adsorption was not significant at a concentration of 6 mg/L. Consequently, it appears from our study that there was no significant adsorption of CMS [23]. […] These studies measured concentrations of both CMS and colistin in the ELF, assuming equal V/fm for CMS and colistin. In our study, the V/fm of colistin in plasma was estimated at 67.4 L, which is much greater than the 13.7 L reported in Boisson et al.. Gkoufa et al. fixed this distribution volume at 13.7 L based on Boisson et al.. The CL/fm of colistin ... || The PK/PD index for colistin is the area under the free colistin concentration-–time curve at steady state over 24 h divided by the pathogen minimum inhibitory concentration (fAUC/MIC). Since we were unable to obtain MIC values for A. baumannii, we evaluated the relationship between the PK and PD of colistin by comparing the fAUC of each patient in accordance with their clinical outcomes and microbiological outcomes. AUC was calculated by dividing the daily dose by patient, which was the individual post hoc Bayesian estimate of the developed PK model. The bioavailability of colistin ...

Turning to `CC[C@H](C)CCCCC(=O)N[C@@H](CCN)C(=O)N[C@H](C(=O)N[C@@H](CCN)C(=O)N[C@H]1CCNC(=O)[C@H]([C@@H](C)O)NC(=O)[C@H](CCN)NC(=O)[C@H](CCN)NC(=O)[C@H](CC(C)C)NC(=O)[C@@H](CC(C)C)NC(=O)[C@H](CCN)NC1=O)[C@@H](C)O` [colistin] (X1-[Dab]T[Dab][Dab][Dab][dL]L[Dab][Dab]T; lactam 4-C), in series [1] (2000 bootstrap samples), the “CL/fm, bootstrap median (95% CI)” value was 26.1 (6.66–67) mL/min; the “KAMAX, bootstrap median (95% CI)” value is reported as 1.20 (0.912–1.59); the “V/fm, bootstrap median (95% CI)” value is given as 67.2 (46.6–93) L. Moreover, in series [1] (Weibull absorption), the “KAMAX (maximum rate of absorption), estimate” value was 1.20. Also, in series [1] (final PK model), the “CL/fm, estimate” value is listed as 26.3 mL/min and the “V/fm, estimate” value is given as 67.4 L. Also, in series [2] (jet nebulizer), the “Maximum ELF concentration, median (IQR)” value is on record as 7.4 (6.2–10.3) mg/L. Besides, the “Maximum ELF concentration, median (IQR)” value in series [2] (vibrating mesh nebulizer) is recorded as 10.4 (4.7–22.6) mg/L. Besides, in series [2] (Boisson et al.), the “CL/fm of colistin in plasma” value is listed as 53.1 mL/min, the “V/fm of colistin in plasma” value is recorded as 13.7 L and the “V/fm of colistin in the ELF” value was 1.2 mL. Also, in series [2] (Gkoufa et al.), the “CL/fm of colistin in plasma” value is reported as 128 mL/min and the “V/fm of colistin in the ELF” value is 14.5 mL. Besides, in series [2] (assumed from the literature to calculate the PK/PD index), the Bioavailability of colistin was 9%. The “Intercompartmental CL/fm” value in series [2] (between ELF and plasma, Gkoufa et al.) is recorded as 0.372 mL/min.
